Experimental data published in article PMC10779222, “Copper(II) Complexes with 1-(Isoquinolin-3-yl)heteroalkyl-2-ones: Synthesis, Structure and Evaluation of Anticancer, Antimicrobial and Antioxidant Potential” (International Journal of Molecular Sciences, 2023).

Key:
T98G cells [1] = settings: C2 at 0.25 µg/mL (non-cytotoxic), drugs at IC50 or 100 µg/mL, 24 h, MTT
Procedure: Next, T98G or HepG2 cells were incubated for 24 h with medium containing a mixture of the respective drugs mixed with the highest non-toxic concentration of C2 (CX). The viability of cells was evaluated using MTT assay, as described above. ANOVA analysis (with Tukey’s post hoc test) was performed in order to examine the possible interactions between compound C2 (CX) and ETO, CIS, 5-FU and TMZ.

T98G cells [2] = test: Cell cycle analysis (image cytometry, DAPI) in T98G; format: cell-based, human; settings: 24 h, C2 at IC50 concentration
Procedure: Cell cycle analysis of T98G and HepG2 cells pretreated with copper(II) complex C2 (CX) (at IC50 concentration) was performed on NucleoCounter NC-3000 Image Cytometer (ChemoMetec, Lillerod, Denmark). The investigated cells were seeded on 6-well culture plates (Corning Inc., New York, NY, USA) at the density of 1 × 10^5 cells/mL and cultured in the respective medium at 37 °C in a humidified atmosphere of 5% CO2. When the cells reached approximately 80% confluence, they were treated with C2 (CX), at a concentration of IC50, for 24 h. Subsequently, the cells were detached with trypsine, suspended in 250 μL of lysis buffer (Solution 10) supplemented with DAPI (10 μg/mL) and incubated for 5 min at 37 °C. Following this, stabilization buffer (Solution 11) was added, and the obtained cell suspension was applied on NC-slide and analyzed using NucleoCounter NC-3000 Image Cytometer equipped with NucleoView NC-3000^TM software (ChemoMetec A/S, Lillerod, Denmark). Experiments were repeated three times, and the measurements in each experiment were run in duplicate.

HepG2 (hepatoma) = test: MTT cytotoxicity assay on HepG2 cells; format: cell-based, human
Procedure: Cytotoxic activity of the investigated compounds was evaluated against T98G (glioblastoma), HepG2 (hepatoma), LS-180 (colon cancer) and A375 (melanoma) cell lines. Human normal skin fibroblasts, CCD-1059Sk (CRL-2072), were used as reference (non-cancerous) cells. All of the cell lines were obtained from American Type Culture Collection (ATCC; Manassas, VA, USA). A375, T98G and CCD-1059Sk cells were cultured in Dulbecco’s Modified Eagle’s Medium (DMEM) (Sigma Aldrich, St. Louis, MO, USA) supplemented with 10% FBS, penicillin (100 U/mL) and streptomycin (100 μg/mL). LS-180 and HepG2 cells were cultured in Eagle’s Minimum Essential Medium supplemented with 10% FBS, penicillin (100 U/mL) and streptomycin (100 μg/mL). All of the cells were maintained at 37 °C in a humidified atmosphere of 5% CO2. The compounds were dissolved in DMSO in order to obtain stock solutions. At the day of the experiment, the suspension of cells (1 × 10^5 cells/mL) was distributed onto 96-well plates at a volume of 100 μL/well. After attachment, the cells were treated with the increased concentrations of the tested compounds in medium containing 2% FBS and incubated for 24 h. Then, the medium was removed from wells, and cells were rinsed with PBS. Afterwards, 15 μL of MTT working solution (5 mg/mL in PBS) was added to each well, and the plates were incubated for 3 h. Subsequently, 100 μL of 10% SDS solution was added to each well in order to dissolve the precipitated formazan crystals. After overnight incubation at 37 °C, the absorbance of the obtained solution was measured at λ = 570 nm using a microplate reader (Epoch, BioTek Instruments, Inc., Winooski, VT, USA). At least two independent experiments were performed in triplicate. […] IC50 values of the investigated derivatives and positive control (etoposide) were calculated using the IC50 online calculator [101].

[3] = DPPH radical scavenging assay; settings: ±SD; 30 min, room temperature
Procedure: The DPPH radical scavenging assay of samples was performed with ascorbic acid as a positive control. Briefly, 100 μL of different concentrations of the complexes, dissolved in DMSO, was mixed with 100 μL of 0.06 mM DPPH methanolic solution and incubated at room temperature in the dark for 30 min. The change in absorbance at λ = 517 nm was analyzed with the use of a 96-well microplate reader (Epoch, BioTek System, Winooski, VT, USA). The control was composed of DPPH and DMSO. DPPH inhibition was calculated according to the following equation:DPPH Inhibition (%) = [(Acontrol − Asample)/Acontrol] × 100% The radical scavenging activity of the samples was shown as the IC50 value (the concentration of the analyzed samples that caused a decrease in the non-reduced form of the DPPH radical by 50%).

Q: Which results are given for `O=C1NCCN1c1cc2ccccc2cn1.O=C1NCCN1c1cc2ccccc2cn1.[Cl][Cu][Cl]` [C2, Dichloro{bis[1-(Isoquinolin-3-yl)imidazolidin-2-one]}copper(II)]?
A: effect on cytotoxicity of anticancer drugs, T98G (T98G cells [1]): statistically significantly improved the cytotoxic effects of ETO, 5-FU and TMZ; effect on cell cycle progression, T98G (T98G cells [2]): cell cycle arrest in the G2/M phase; selectivity index (SI), HepG2 (HepG2 (hepatoma); HepG2 compared with CCD-1059-Sk): 4.33; highest concentration that did not affect the viability of HepG2 cells (HepG2 (hepatoma); MTT assay): 0.25 µg/mL; IC50 ± SD, HepG2 (HepG2 (hepatoma); MTT, 24 h incubation): 5.04 ± 0.42 µg/mL; IC50 DPPH [3]: 401.52 ± 2.48 µg/mL
